Results published in paper PMC7807051, “Modulation of cAMP metabolism for CFTR potentiation in human airway epithelial cells” (Scientific Reports, 2021).
pEC50: −log10 of the molar value. Like-named read-outs stand apart in the source and are kept apart here.

Test system: CFTR
Assay: In vitro CFTR membrane potential assay in Calu-3 cells
Assay type: cell-based, human
Conditions: for pEC50: Calu-3 cells, cAMP inducer alone
Experimental: An in vitro CFTR membrane potential assay was performed on Calu-3 cells and primary human bronchial epithelial cells, from two independent donors, cultured at 37 °C as previously described. All human samples were collected from consented individuals under ethics approval granted by Hamilton Integrated Research Ethics Board (Project Number 5099-T).
Calu-3 cells were grown for 21 days on 96-well plates and primary HBECs were grown for 14 days under air–liquid interface conditions on collagen-coated (Sigma-Aldrich) 6.5 mm Transwell Inserts (Corning). All cells were washed with HBSS prior to experimental conditions. After washing with HBSS, cells were loaded with BLUE Membrane Potential Dye (Molecular Devices, #R8042) dissolved in 37 °C chloride-free buffer (NMDG Gluconate Buffer – 150 mM NMDG-gluconate, 3 mM KCl, 10 mM HEPES, pH 7.35, 300 mOsm). Immediately after dye loading, CFTR activity measurements were taken. CFTR activity measurements are fluorescent readouts for detecting ion channel activity. CFTR inhibition was performed with CFTRinh-172 (10 μM) for all experiments to attribute changes in fluorescence as CFTR channel activity. This assay has been validated using proof of concept studies where results obtained from this assay were able to recapitulate findings obtained from direct measurements of ion channel activity using Ussing chambers. At the end of this assay, raw data was exported for statistical analysis.
For Calu-3 cells, measurements were taken during baseline (40 min), cAMP elevation (30 min), and CFTR inhibition (20 min). cAMP elevation was performed using forskolin or isoproterenol (0.0005–50 μM). For assays with ABCC4 or PDE-4 inhibitors, a pre-incubation with the inhibitors (30 min) in the plate reader was performed prior to cAMP elevation. CFTR modulator VX-770 was used at 1 μM. CFTR activity was determined by dividing a single membrane potential peak measurement after the ABCC4 or PDE-4 inhibition and cAMP elevation additions to the stabilized baseline over DMSO control.
For in vitro CFTR membrane potential assays, in Calu-3 cells, values were normalized to the averaged baseline over averaged vehicle (DMSO) control of all biological replicates. SD was calculated using data from biological replicates (n = 4–8). An area under the curve (AUC), half-maximal concentration (EC50), […] (Emax), and baseline analysis was performed for each individual replicate then averaged together. The AUC analysis is an aggregate measure of sensitivity and maximal response, allowing for the observation of the total net responsiveness of the cells. The AUC analysis was done by normalizing the individual replicates to the bottom most value of the averaged vehicle control. In primary HBECs, six independent measurements were taken within a single Transwell insert. The value is the average of at least six measurements. These values were normalized to the averaged baseline over the averaged vehicle (DMSO) control. SD was calculated by treating the six measurements as independent, with additional technical replicates (n = 6–18). An AUC and max peak analysis were performed for each measurement, then averaged together. The max peak analysis was the max CFTR activity achieved during the drug addition step.
In order to compare the independent experiments performed, a fold-change analysis using individual AUC, EC50, and Emax, determined from their respective concentration–response curves, was performed and was normalized to the averaged DMSO vehicle control. A one-way ANOVA with subsequent post-hoc test or a paired t-test was performed. Statistical analysis was performed using GraphPad Prism 6.

[1] = Calu-3, forskolin (FSK) curve with agent vs DMSO control
[2] = Calu-3, forskolin (FSK) curve with agent vs DMSO control, VX-770 1 μM, MK-571 1.8 μM, Ceefourin-1 4.8 μM, Roflumilast 1 μM, Rolipram 10 μM, IBMX 100 μM
[3] = Calu-3, isoproterenol (ISO) curve with agent vs DMSO control
[4] = Calu-3, isoproterenol (ISO) curve with agent vs DMSO control, same agent concentrations as E5
[5] = read-out: half maximal effective concentration (EC50), CFTR activity

| Structure (SMILES) | Baseline of concentration–response curve, CFTR activity [1] | EC50 of concentration–response curve, CFTR activity [1] | Emax of concentration–response curve, CFTR activity [1] | AUC of concentration–response curve, CFTR activity [2] | Baseline of concentration–response curve, CFTR activity [3] | EC50 of concentration–response curve, CFTR activity [3] | Emax of concentration–response curve, CFTR activity [3] | AUC of concentration–response curve, CFTR activity [4] | maximal degree of change for CFTR activity (Calu-3, ISO compared with FSK, inducers alone) | pEC50 [5] | pEC50 (value in picture, no unit, read-out: EC50, CFTR activity (Figure 3)) |
| --- | --- | --- | --- | --- | --- | --- | --- | --- | --- | --- | --- |
| COc1ccc(C2CNC(=O)C2)cc1OC1CCCC1 (centres unmarked) [Rolipram] | not different | not different | not different | not FSK | not different | not different | not different | significant increases | – | – | – |
| CN(C)C(=O)CCSC(SCCC(=O)O)c1cccc(/C=C/c2ccc3ccc(Cl)cc3n2)c1 (centres unmarked) [MK-571] | No combination of ABCC4 inhibitor and cAMP-elevating agent changed CFTR activity | No combination of ABCC4 inhibitor and cAMP-elevating agent changed CFTR activity | No combination of ABCC4 inhibitor and cAMP-elevating agent changed CFTR activity | No combination of ABCC4 inhibitor and cAMP-elevating agent changed CFTR activity | No combination of ABCC4 inhibitor and cAMP-elevating agent changed CFTR activity | No combination of ABCC4 inhibitor and cAMP-elevating agent changed CFTR activity | No combination of ABCC4 inhibitor and cAMP-elevating agent changed CFTR activity | No combination of ABCC4 inhibitor and cAMP-elevating agent changed CFTR activity | – | – | – |
| CC(C)NCC(O)c1ccc(O)c(O)c1 (centres unmarked) [ISO, isoproterenol] | – | – | – | – | – | – | – | – | greater | 7.15 | 7.18 |
| C=C[C@@]1(C)CC(=O)[C@]2(O)[C@@]3(C)[C@@H](O)CCC(C)(C)[C@@H]3[C@H](O)[C@H](OC(C)=O)[C@@]2(C)O1 [FSK, forskolin] | – | – | – | – | – | – | – | – | – | 6.72 | – |
| CC(C)Cn1c(=O)n(C)c(=O)c2[nH]cnc21 [IBMX] | – | – | – | Significant increases | significant increases | – | – | Significant increases | – | – | – |
